The supplement of paper PMC10307832

Columns and labels:
Experiment in all cases: relative viability (nuclei count vs DMSO), 5 days (fraction); higher = more cells survive
Selisistat + Trametinib = compound: C1CC(C2=C(C1)C3=C(N2)C=CC(=C3)Cl)C(=O)N [Selisistat] + CC(=O)Nc1cccc(-n2c(=O)n(C3CC3)c(=O)c3c(Nc4ccc(I)cc4F)n(C)c(=O)c(C)c32)c1 [Trametinib] (partner 0.02 µM)
Outline: (§1)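 Relative viability equals treated-well nuclei counts divided by vehicle-well nuclei counts. Counts came from 4× images of lung cancer cell lines grown in 1536-well plates for 5 days after pin-tool dosing on the day after seeding. Dosing used one drug alone or a fixed anchor-drug dose plus five library-drug doses (not always all listed) in √10 steps, and values are medians of duplicate plates.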

Serdemetan = compound: c1ccc2c(CCNc3ccc(Nc4ccncc4)cc3)c[nH]c2c1 [Serdemetan]
Outline: (§2)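 For viability, nuclei in each treated well were divided by nuclei in vehicle wells and the median across plates was taken. Lung cancer cell lines in 1536-well plates were pinned with five library-drug doses (not always all listed) spaced by √10, cultured 5 days without medium change, and imaged at 4× after Hoechst staining, with plates passing only at control CV below 25% and at least one doubling.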

Selisistat = compound: C1CC(C2=C(C1)C3=C(N2)C=CC(=C3)Cl)C(=O)N [Selisistat]
Outline: as §2

Serdemetan + Navitoclax = compound: c1ccc2c(CCNc3ccc(Nc4ccncc4)cc3)c[nH]c2c1 [Serdemetan] + CC1(C)CCC(c2ccc(Cl)cc2)=C(CN2CCN(c3ccc(C(=O)NS(=O)(=O)c4ccc(N[C@H](CCN5CCOCC5)CSc5ccccc5)c(S(=O)(=O)C(F)(F)F)c4)cc3)CC2)C1 [Navitoclax] (partner 0.5 µM)
Outline: as §1

Cell Line | relative viability (Selisistat + Trametinib; first compound 0.4 µM) | relative viability (Selisistat + Trametinib; first compound 1.265 µM) | relative viability (Selisistat + Trametinib; first compound 4 µM) | relative viability (Selisistat + Trametinib; first compound 12.65 µM) | relative viability (Selisistat + Trametinib; first compound 40 µM) | relative viability (Serdemetan; 0.04 µM) | relative viability (Serdemetan; 0.1265 µM) | relative viability (Serdemetan; 0.4 µM) | relative viability (Serdemetan; 1.265 µM) | relative viability (Serdemetan; 4 µM) | relative viability (Selisistat; 0.4 µM) | relative viability (Selisistat; 1.265 µM) | relative viability (Selisistat; 4 µM) | relative viability (Selisistat; 12.65 µM) | relative viability (Selisistat; 40 µM) | relative viability (Serdemetan + Navitoclax; first compound 0.04 µM) | relative viability (Serdemetan + Navitoclax; first compound 0.1265 µM) | relative viability (Serdemetan + Navitoclax; first compound 0.4 µM) | relative viability (Serdemetan + Navitoclax; first compound 1.265 µM) | relative viability (Serdemetan + Navitoclax; first compound 4 µM)
NCI-H2342 | 0.931 | 0.826 | 0.801 | 0.736 | 0.988 | 1.17 | 1.13 | 1.08 | 0.84 | 0.69 | 1.06 | 0.881 | 0.908 | 0.94 | 0.928 | – | – | – | – | –
SK-MES-1 | 0.589 | 0.539 | 0.55 | 0.492 | 0.459 | 0.959 | 1.01 | 0.971 | 0.831 | 0.741 | 1.09 | 0.986 | 0.955 | 0.93 | 0.976 | 1.21 | 1.24 | 1.25 | 0.917 | 0.551
HCC-366 | 0.435 | 0.302 | 0.329 | 0.301 | 0.285 | 1 | 0.989 | 0.978 | 0.121 | 0.101 | 0.997 | 0.957 | 0.894 | 1.01 | 1 | 1.03 | 0.981 | 0.522 | 0.0806 | 0.0474
201T | 0.761 | 0.655 | 0.71 | 0.691 | 0.749 | 0.983 | 0.987 | 0.937 | 0.919 | 0.919 | 1.02 | 0.996 | 0.875 | 1.01 | 0.996 | 1.18 | 1.22 | 1.2 | 1.14 | 1.13
HCC-827 | 0.529 | 0.575 | 0.546 | 0.572 | 0.559 | 1.04 | 0.972 | – | 0.862 | 0.83 | 1.02 | 1.04 | 0.952 | 0.975 | 1 | 1.02 | 0.941 | – | 0.787 | 0.753
NCI-H647 | 0.467 | 0.457 | 0.449 | 0.472 | 0.474 | 0.905 | 0.964 | 0.964 | 0.819 | 0.655 | 0.958 | 0.964 | 0.826 | 0.959 | 1.03 | 1.06 | 1.14 | 1.06 | 0.844 | 0.83
NCI-H2023 | 0.608 | 0.473 | 0.607 | 0.47 | 0.573 | 0.884 | 1.09 | 0.932 | 0.424 | 0.345 | 0.952 | 0.966 | 0.828 | 0.876 | 0.934 | 0.929 | 1.05 | 0.99 | 0.682 | 0.344
NCI-H520 | 0.545 | 0.599 | 0.651 | 0.681 | 0.637 | 0.929 | 0.977 | 0.951 | 0.633 | 0.856 | 0.978 | 0.939 | 0.995 | 0.937 | 0.877 | 1 | 1.09 | 1.07 | 0.762 | 0.924
RERF-LC-KJ | 0.812 | 0.792 | 0.816 | 0.771 | 0.736 | 0.99 | 0.948 | 0.93 | 0.942 | 0.939 | 1.06 | 0.969 | 0.927 | 0.836 | 0.87 | 1.15 | 0.842 | 1.06 | 0.805 | 0.983
A-427 | 0.842 | 0.801 | – | 0.776 | 0.775 | 0.954 | 1 | 1.03 | 0.762 | 0.825 | 1.03 | 0.984 | 0.845 | 0.971 | 0.944 | 0.967 | 0.971 | 0.882 | 0.724 | 0.615
NCI-H441 | 0.455 | 0.432 | 0.363 | 0.398 | 0.452 | 0.981 | 1.06 | 1.06 | 0.815 | 0.78 | 1.22 | 1.11 | 0.774 | 0.955 | 1.01 | 0.424 | 0.654 | 0.87 | 0.87 | 0.317
NCI-H1703 | – | – | – | – | – | 1.08 | 0.84 | 0.882 | 0.764 | 0.71 | 0.894 | 0.834 | 0.9 | 0.853 | 0.848 | 1.05 | 1.24 | 1.17 | 0.958 | 0.951
NCI-H1792 | 0.493 | 0.38 | – | 0.44 | 0.44 | 0.934 | 0.674 | 0.848 | 0.593 | 0.62 | 0.927 | 1.18 | – | 0.862 | 0.855 | 0.655 | 0.587 | 0.551 | 0.355 | 0.476
Calu-6 | – | – | – | – | – | 1 | 1.02 | 1.02 | 0.875 | 0.677 | 1.03 | 0.965 | 0.99 | 0.976 | 1 | 0.973 | 0.869 | 0.682 | 0.687 | 0.493
SK-LU-1 | 0.598 | 0.503 | 0.546 | 0.51 | 0.444 | 1.02 | 0.999 | 1.1 | 0.802 | 0.828 | 1.08 | 1.07 | 1.08 | 1.08 | 1.13 | 0.809 | 0.971 | 0.853 | 0.705 | 0.639
PC-3 [JPC-3] | 0.805 | 0.664 | – | 0.74 | 0.695 | 1.04 | 0.961 | 0.702 | 0.98 | 1.06 | 1.14 | 1.04 | 0.85 | 1.07 | 0.948 | 0.747 | 0.713 | – | 0.76 | 0.762

Cell Line | relative viability (Selisistat + Trametinib; first compound 0.4 µM) | relative viability (Selisistat + Trametinib; first compound 1.265 µM) | relative viability (Selisistat + Trametinib; first compound 4 µM) | relative viability (Selisistat + Trametinib; first compound 12.65 µM) | relative viability (Selisistat + Trametinib; first compound 40 µM) | relative viability (Serdemetan; 0.04 µM) | relative viability (Serdemetan; 0.1265 µM) | relative viability (Serdemetan; 0.4 µM) | relative viability (Serdemetan; 1.265 µM) | relative viability (Serdemetan; 4 µM) | relative viability (Selisistat; 0.4 µM) | relative viability (Selisistat; 1.265 µM) | relative viability (Selisistat; 4 µM) | relative viability (Selisistat; 12.65 µM) | relative viability (Selisistat; 40 µM) | relative viability (Serdemetan + Navitoclax; first compound 0.04 µM) | relative viability (Serdemetan + Navitoclax; first compound 0.1265 µM) | relative viability (Serdemetan + Navitoclax; first compound 0.4 µM) | relative viability (Serdemetan + Navitoclax; first compound 1.265 µM) | relative viability (Serdemetan + Navitoclax; first compound 4 µM)
EMC-BAC-2 | 0.907 | 0.927 | 0.96 | 0.885 | 0.816 | 0.962 | 1.02 | 0.971 | 0.849 | 0.967 | 0.978 | 0.996 | 0.595 | 0.688 | 0.561 | 1.14 | 1.14 | 1.1 | 1.09 | 0.745
LK-2 | 0.994 | 0.677 | 0.711 | 0.656 | 1.01 | 0.999 | 1.02 | 1.01 | 0.848 | 0.887 | 0.963 | 0.891 | 1 | 0.913 | 1.02 | 0.918 | 0.889 | 1.2 | 0.953 | 0.746
NCI-H1299 | – | – | – | – | – | 1.01 | 1 | 0.975 | 0.895 | 0.754 | 1.05 | 1.03 | 1.04 | 1.02 | 1.01 | 1.02 | 1.03 | 1.02 | 0.942 | 0.835
LCLC-103H | 0.682 | 0.731 | 0.75 | 0.651 | 0.711 | 0.993 | 1.01 | 0.995 | 0.877 | 1.04 | 1.06 | 1.05 | 0.819 | 0.947 | 0.988 | – | – | – | – | –
ABC-1 | – | – | – | – | – | 0.948 | 0.923 | 0.994 | 0.603 | 0.56 | 0.897 | 0.869 | 0.647 | 0.772 | 0.819 | – | – | – | – | –
NCI-H650 | 0.978 | 1.01 | 0.967 | 0.909 | 1.01 | 0.896 | 0.889 | 0.934 | 0.878 | 0.764 | 0.948 | 0.868 | 1.08 | 0.886 | 1.06 | – | – | – | – | –
NCI-H1648 | 0.448 | 0.399 | – | 0.453 | 0.431 | – | 1.07 | 0.924 | 0.472 | 0.358 | 0.769 | 0.787 | 1.04 | 1.19 | 1.19 | – | – | – | – | –
NCI-H661 | 0.522 | 0.541 | 0.442 | 0.502 | 0.45 | 0.974 | 0.977 | 1.01 | 0.815 | 0.94 | 1.02 | 1 | 1 | 0.901 | 0.906 | – | – | – | – | –
NCI-H1563 | – | – | – | – | – | 0.866 | 0.849 | 0.8 | 0.622 | 0.744 | 0.972 | 0.886 | 0.906 | 0.865 | 0.902 | – | – | – | – | –
A549 | – | – | – | – | – | 0.907 | 0.938 | 0.932 | 0.778 | 0.59 | 1.05 | 0.901 | 0.952 | 0.898 | 0.982 | 1.2 | 1.15 | 1.19 | 0.598 | 0.208
NCI-H522 | 0.651 | 0.653 | 0.745 | 0.751 | 0.589 | 1.03 | 0.938 | 0.943 | 0.605 | 1.09 | 0.899 | 0.964 | 0.763 | 0.806 | 0.885 | – | – | – | – | –
NCI-H1623 | – | – | – | – | – | 0.969 | 1.02 | 0.961 | 0.815 | 0.713 | 1.08 | 1.08 | 0.843 | 1.09 | 1.18 | – | – | – | – | –
SW 900 | 1.03 | 0.87 | 0.78 | 0.995 | 0.78 | 0.876 | 0.941 | 0.926 | 0.547 | 0.666 | 1 | 0.801 | 0.656 | 0.846 | 0.858 | – | – | – | – | –
IA-LM | – | – | – | – | – | 0.942 | 0.963 | 0.956 | 0.711 | 0.505 | 0.945 | 0.959 | 0.918 | 0.9 | 1.01 | 0.822 | 0.648 | 0.692 | 0.341 | 0.239
NCI-H358 | 0.146 | 0.16 | 0.122 | 0.129 | 0.122 | 0.897 | 0.905 | 0.901 | 0.81 | 0.798 | 0.989 | 0.925 | – | 1.06 | 0.976 | – | – | – | – | –
EBC-1 | – | – | – | – | – | 0.903 | 0.931 | 0.943 | 0.857 | 0.722 | 0.994 | 0.963 | 1.01 | 0.956 | 0.954 | 0.553 | 0.47 | 0.41 | 0.424 | 0.341
